Experimental data reported in US20260216362A1, “ANTI-BDCA2 ANTIBODY-DRUG CONJUGATE AND USE THEREOF” (DUALITY BIOLOGICS (SHANGHAI) CO., LTD., priority 2022, published 2026).

Key:
[1] = system: cynomolgus monkey whole blood stimulated with CpG-A; experiment: TNF-α after in vitro CpG-A stimulation of whole blood of dosed cynomolgus monkeys; assay type: in vivo; settings: 10 mg/kg i.v.; CpGA-stimulated whole blood
Procedure: Cytokine expression was detected by whole blood stimulation in vitro.
The cells were cultured at 37° C. for 18 h, and the supernatant was collected. The TNF-α and IFN-α concentration levels in the supernatant were detected using an ELISA kit.
TNF-α concentration assay was performed using a R&D Primate TNF-α DuoSet ELISA kit (Cat. No. DY1070). 50 μL of serially diluted cytokine standard was added to each standard well, 50 μL of test sample was added to each sample well, and 50 μL of PBS was added to each blank control well. The cells were incubated at 37° C. for 2 h. The plate was washed 3 times: the liquid in each well was removed, and 300 μL of 1× PBST buffer working solution was added to each well; and after 1 minute of residence, the liquid in each well was discarded. 100 μL of detection antibody working solution was added to each well, and the cells were incubated at 37° C. for 1 h. […] The reading at wavelength 450 nm was detected using a Molecular device spectra max plus384 instrument within 10 min after the reaction was stopped.
Evaluation criteria in FIGS. 12-13: the average expression level changes of IFNα/TNFα were evaluated after in vitro stimulation of the whole blood with CpGA at 200 μg/mL on days 0-33 after administration. […]

human PBMC cells = experiment: Inhibition by humanized antibodies of IFNα release from human PBMC cells stimulated by CpG-A; assay type: cell-based; settings: Table 4, humanized antibodies; read-out: EC50, inhibition of release of cytokine IFNα from human PBMC cells stimulated by CpG-A
Procedure: A series of humanized candidate antibody molecules were selected and subjected to the function detection of inhibiting the release of the cytokine IFNα from the human PBMC cells stimulated by CpG-A. The cryopreserved human PBMC cells were thawed and incubated in a complete culture medium (1640+10% FBS+1×NEAA+1×L-Glutamine) overnight for 18 h. The next day, the PBMC cells were collected and centrifuged at 600 g for 8 min, and the supernatant was discarded. The cells were resuspended to 8×10^6 cells/mL in a culture medium (1640+10% FBS), and the mixture was added to a 3799 cell culture plate at 100 μL/well. The test antibody was diluted in a 10-fold gradient (0.0001 nM-10 nM, and 0 concentration point was used as a control) with the culture medium (1640+10% FBS), and the diluted antibody was added to the PBMCs at 50 μL/well. The cells were resuspended and then incubated at 37° C. for 6 h. 50 μL of CpG-A (2 μM, Invitrogen, tlrl-2216-5) diluted in the culture medium (1640+10% FBS) was added to each well and mixed, followed by incubation at 37° C. for another 20 h. […]
The antibody MT1/3/5 (Mabtech, 3425-1H-20) was diluted to 4 μg/mL with PBS, and added to a CORNING ELISA plate at 100 μL/well. […] The values at OD450 nm were read on an ELISA plate reader, and curves were fitted using GraphPad Prism6. […]

## BIIB059: reference antibody specifically binding to BDCA2, sequence derived from U.S. Pat. No. 9,902,775B2; SEQ ID NO: 25 and 26 [reference compound]
[1]
  TNFα expression level compared to the blank control group: no significant change
Human PBMC cells
  EC50: 0.04 nM
